Reference: patent publication US20140328893A1, “NUTLIN COMPOUNDS FOR USE IN THE TREATMENT OF PULMONARY HYPERTENSION” (Institut National de la Sante et de la Recherche Medicale …, priority 2011, published 2014)

Columns and labels:
[1] = test system: p53 pathway; test: Lung p53 and p21 levels in hypoxic mice (Western blotting, RT-qPCR); assay type: in vivo
Protocol: (§1) Nutlin-3 was administered at the increasing dosages of 6, 12, and 25 mg/Kg/day by intraperitoneal injection. At completion of treatment, lungs were removed and prepared for histological or Western blot analyses.
(§2) p53, p16, p21, caspase and MDM2 proteins were detected and measured in lung tissues and/or cells using Western blotting. Levels of p21, Bax, and PUMA mRNA in lung tissues and/or cells were determined using RT-qPCR. Total mRNA was extracted from lung tissues and PA-SMC using RNeasy Mini Kit (Qiagen, ZA Courtaboeuf, France). First-strand cDNA was synthesized in reversed transcribed samples, as follows: 1 μg total RNA isolated from cells or lung tissues, 200 U/μL SuperScrip II RT (Invitrogen, Life Technologies, Cergy-Pontoise, France), 100 ng Random primers and 10 mM mixed dNTP. Quantitative PCR was performed in a 7900HT Real-Time PCR system (Applied Biosystems, ZA Courtaboeuf, France), using SYBR green Mix from Invitrogen.

[2] = test system: cultured human PA-SMC; test: PA-SMC proliferation (MTT); assay type: cell-based; settings: 2.5-10 μM, 48 hours
Protocol: (§3) Cultured PA-SMCs were collected from pulmonary arteries of patients undergoing lung surgery for localized lung tumours. To determine the phenotypic characteristics of cultured PA-SMCs, the cells from each culture were assessed for expression of musclespecific contractile and cytoskeletal proteins, including smooth muscle cell α-actin and desmin.
To assess the effects of nutlin-3 on PASMC proliferation, cells were exposed to increasing concentration of nutlin-3a (2.5-10 μM) or vehicle in serum-free medium or in presence of PDGF-BB (50 ng/ml). After 48 hours, tetrazolium salt (MTT), (Sigma, Lyon, France) was added to each well (0.2 mg/ml). After 4 hours incubation at 37° C., the culture medium was removed and formazan crystals were solubilized by adding 500 μL of DMSO. Tetrazolium salt reduction to formazan within the cells was quantified by spectrophotometry at 520 nm.

[3] = test system: p53 pathway; test: p53 pathway activation in cultured human PA-SMCs (Western blotting, RT-qPCR); assay type: cell-based; settings: 2.5 to 10 μM
Protocol: as §3
(§4) To assess the effects of nutlin on cell senescence, the percentage of beta-galactosidase (β-gap)-positive cells was measured after 48 hours incubation with nutlin-3 in presence or absence of vehicle or PDGF. The amounts of p53, p16, and p21 proteins or mRNA were determined by western blotting o by RT-qPCR, respectively.
as §2

[4] = test system: SM22-5-HTT+ mice; test: Pulmonary hypertension in SM22-5-HTT+ mice; assay type: in vivo; settings: 12 mg/Kg/day
Protocol: (§5) Wild-type mice aged 15-20 weeks were randomly allocated to room air or chronic hypoxia. Transgenic animals expressing the human 5-HTT gene in smooth muscle (SM22-5-HTT+ mice) were produced as previously described. All animal care and procedures were in accordance with institutional guidelines.
as §1
Mice exposed previously to hypoxia or room air or SM22-5-HTT+ mice were anaesthetized. After incision of the abdomen, a 26-gauge needle connected to a pressure transducer was inserted into the right ventricle through the diaphragm, and right ventricular systolic pressure (RVSP) was recorded immediately. Then, the thorax was opened and the lungs and heart were removed. […] The percentage of pulmonary vessels in each muscularization category was determined by dividing the number of vessels in that category by the total number counted in the relevant group of animals. For fully muscular vessels, video images were obtained and arterial diameters were measured using computerized image-analysis software. Percent wall thickness was then calculated as the diameter of the external elastic lamina minus the diameter of the internal lamina divided by the diameter of the external elastic lamina.

[5] = test system: p53 pathway; test: Lung p53 and p21 levels in SM22-5-HTT+ mice (Western blotting, RT-qPCR); assay type: in vivo
Protocol: as §1, §2

[6] = test system: cultured human PA-SMC; test: PA-SMC senescence (beta-galactosidase-positive cells); assay type: cell-based; settings: 48 hours incubation
Protocol: as §3, §4

[7] = test system: mice exposed to chronic hypoxia; test: Pulmonary hypertension in mice exposed to chronic hypoxia; assay type: in vivo
Protocol: as §5, §1
Mice were exposed to chronic hypoxia (10% O2) in a ventilated chamber (Biospherix, N.Y., USA). The hypoxic environment was established by flushing the chamber with a mixture of room air and nitrogen, and the gas was recirculated. The chamber environment was monitored using an oxygen analyzer. Carbon dioxide was removed by soda lime granules, and excess humidity was prevented by cooling of the recirculation circuit. Normoxic mice were kept in the same room, with the same light-dark cycle.
Mice exposed previously to hypoxia or room air or SM22-5-HTT+ mice were anaesthetized. After incision of the abdomen, a 26-gauge needle connected to a pressure transducer was inserted into the right ventricle through the diaphragm, and right ventricular systolic pressure (RVSP) was recorded immediately. Then, the thorax was opened and the lungs and heart were removed. The right ventricle (RV) was dissected from the left ventricle plus septum (LV+S), and these dissected samples were weighed for determination of Fulton's index (RV/LV+S). The lungs were fixed by intratracheal infusion of 4% aqueous buffered formalin. A midsagittal slice of the right lung was processed for paraffin embedding. Sections 5 μm in thickness were cut and stained with hematoxylin-phloxine-saffron for examination by light microscopy. In each mouse, a total of 20 to 30 intraacinar vessels accompanying either alveolar ducts or alveoli were examined by an observer who was blinded to the treatment or genotype. Each vessel was categorized as nonmuscular (no evidence of vessel wall muscularization), partially muscular (smooth muscle cells [SMCs] identifiable in less than three-fourths of the vessel circumference), or fully muscular (SMCs in more than three-fourths of the vessel circumference). The percentage of pulmonary vessels in each muscularization category was determined by dividing the number of vessels in that category by the total number counted in the relevant group of animals. For fully muscular vessels, video images were obtained and arterial diameters were measured using computerized image-analysis software. Percent wall thickness was then calculated as the diameter of the external elastic lamina minus the diameter of the internal lamina divided by the diameter of the external elastic lamina.

[8] = test system: p53-deficient (p53−/−) mice; test: Chronic hypoxia-induced pulmonary hypertension in p53-deficient mice; assay type: in vivo
Text: Normoxic mice were kept in the same room, with the same light-dark cycle.

[9] = chronic hypoxia mice, 6 to 25 mg/Kg/day intraperitoneally
[10] = mice, associated with protective effects

SMILES	lung p21 mRNA [1]	lung p21 protein [1]	lung p53 protein [1]	cell proliferation stimulated by 50 ng/ml PDGF ([2]; 50 ng/ml PDGF)	cell proliferation stimulated by 0.2% FCS ([2]; 0.2% FCS)	mRNA level of p53 target gene Bax [3]	mRNA level of p53 target gene PUMA [3]	mRNA level of p53 target gene p21 [3]	p53 protein [3]	PH in SM22-5-HTT+ mice [4]	lung p21 mRNA [5]	lung p21 protein [5]	lung p53 protein [5]	percentage of beta-galactosidase stained cells (senescent cells) [6]	distal pulmonary artery muscularization [7, 9]	pulmonary hypertension [7, 9]	right ventricular hypertrophy [7, 9]	PA-SMC proliferation [7, 10]	apoptosis [7, 10]	pulmonary hypertension induced by chronic hypoxia in p53-deficient mice [8]
COc1ccc(C2=NC(c3ccc(Cl)cc3)C(c3ccc(Cl)cc3)N2C(=O)N2CCNC(=O)C2)c(OC(C)C)c1 (racemic) [Nutlin-3, (±)-4-[4,5-Bis(4-chlorophenyl)-2-(2-isopropoxy-4-methoxy-phenyl)-4,5-dihydro-imidazole-1-carbonyl]-piperazin-2-one]	marked increases	marked increases	marked increases	dose-dependent inhibition	dose-dependent inhibition	increased	increased	increased	increased	partially reversed	marked increases	marked increases	marked increases	increase	prevented	prevented	prevented	decrease	increase	
COc1ccc(C2=N[C@@H](c3ccc(Cl)cc3)[C@@H](c3ccc(Cl)cc3)N2C(=O)N2CCNC(=O)C2)c(OC(C)C)c1 [nutlin-3a]																				remained unaffected
